# Patent publication US8946477B2, “Solid forms of an N-(phenylmethyl) propanamide derivative and processes of preparation” (Medichem, S.A., priority 2009, dated 2015)
# Test: Stability studies: storage under standard conditions, then XRD analysis
# Format: physicochemical
# Settings: for XRD after storage (polymorphic form): stored at room temperature, air atmosphere
compound,measurement,setting,value
"COC[C@@H](NC(C)=O)C(=O)NCc1ccccc1 [Example 42, (2R)-2-(acetylamino)-3-methoxy-N-(phenylmethyl)propanamide]",XRD after storage (polymorphic form),"normal pressure, storing time 290 days",Form III
"COC[C@@H](NC(C)=O)C(=O)NCc1ccccc1 [amorphous lacosamide, (2R)-2-(acetylamino)-3-methoxy-N-(phenylmethyl)propanamide]",stability on storage,"ambient conditions and air atmosphere for at least 250 days, more typically at least 300 days",substantially stable
same,XRD after storage (FIG. 13 vs FIG. 12),"room temperature, normal pressure, air atmosphere for 304 days (Example 63)",retention of amorphous Form
"COC[C@@H](NC(C)=O)C(=O)NCc1ccccc1 [lacosamide Form III, (2R)-2-(acetylamino)-3-methoxy-N-(phenylmethyl)propanamide]",polymorphic stability on storage,"ambient conditions and air atmosphere for at least 250 days, more typically at least 290 days",substantially no polymorphic interconversion is observed
"COC[C@@H](NC(C)=O)C(=O)NCc1ccccc1 [Example 41, (2R)-2-(acetylamino)-3-methoxy-N-(phenylmethyl)propanamide]",XRD after storage (polymorphic form),"normal pressure, storing time 295 days",Form III
